For 32 compounds, EC50 results are on record in US20240336608A1, “IL4I1 INHIBITORS AND METHODS OF USE” (Merck Sharp & Dohme LLC, priority 2023, published 2024).

The target of this assay is T1, recombinant IL4I1 (Homo sapiens, UniProt Q96RQ9).
T1 construct: purchased R&D Systems 5684-AO-020
T1 sequence (Q96RQ9 22-567): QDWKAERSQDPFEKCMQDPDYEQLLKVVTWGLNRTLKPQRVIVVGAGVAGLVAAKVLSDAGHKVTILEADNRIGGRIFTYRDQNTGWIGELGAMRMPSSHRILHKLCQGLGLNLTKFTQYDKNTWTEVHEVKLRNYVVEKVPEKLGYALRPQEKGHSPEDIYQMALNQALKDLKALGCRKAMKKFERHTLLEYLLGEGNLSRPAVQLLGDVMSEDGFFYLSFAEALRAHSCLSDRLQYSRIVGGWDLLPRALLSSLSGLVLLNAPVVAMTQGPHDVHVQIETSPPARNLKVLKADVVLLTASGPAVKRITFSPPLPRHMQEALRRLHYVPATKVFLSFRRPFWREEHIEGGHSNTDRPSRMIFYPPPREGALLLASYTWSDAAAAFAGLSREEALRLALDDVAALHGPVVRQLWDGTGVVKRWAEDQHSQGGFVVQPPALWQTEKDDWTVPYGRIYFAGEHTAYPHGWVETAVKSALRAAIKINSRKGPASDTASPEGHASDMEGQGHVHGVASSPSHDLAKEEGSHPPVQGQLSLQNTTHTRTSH
Nature of the assay: IL4I1 Enzymatic Assay (Amplex Red/HRP coupled detection of H2O2, fluorescence). The note with it: 1 nM recombinant IL4I1; four-hour pre-incubation with compound; 1 mM each Phe, Tyr, Trp; ten-point titration. The class given is biochemical. The procedure, abridged: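 Recombinant IL4I1 (1 nM final) pre-incubated 4 h at ambient temperature with compound (0.5% DMSO) in 50 mM Hepes pH 7.0, 0.005% Tween20; reaction started with 1 mM each Phe/Tyr/Trp plus excess Amplex Red/HRP, run 120 min. H2O2 read as resorufin fluorescence; EC50 from 10-point four-parameter fit.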

In the case of `C[C@@H](O)[C@H](CO)n1cc(C(=O)NCc2nnc(-c3ccccc3)s2)nn1` [Example 187, 1-((2S,3R)-1,3-dihydroxybutan-2-yl)-N-((5-phenyl-1,3,4-thiadiazol-2-yl)methyl)-1H-1,2,3-triazole-4-carboxamide], the EC50 (in general, the concentration that produces a half-maximal response) is 196 nM.

For the compound `O=C(NCc1nnc(-c2ccccc2)s1)c1cn(C2CS(=O)(=O)CC2O)nn1` (centres unmarked) [Example 188, 1-(4-hydroxy-1,1-dioxidotetrahydrothiophen-3-yl)-N-((5-phenyl-1,3,4-thiadiazol-2-yl)methyl)-1H-1,2,3-triazole-4-carboxamide], the EC50 worked out at 155 nM.

As to `O=C(NCc1nnc(-c2ccccc2)s1)c1cn([C@H]2COC[C@@H]2O)nn1` [Example 189, 1-((3S,4R)-4-hydroxytetrahydrofuran-3-yl)-N-((5-phenyl-1,3,4-thiadiazol-2-yl)methyl)-1H-1,2,3-triazole-4-carboxamide], the EC50 stood at 107 nM.

With `O=C(NCc1nnc(-c2ccccc2)s1)c1cn([C@@H]2C[C@@H](O)[C@@H](O)C2)nn1` [Example 190, 1-((1s,3R,4S)-3,4-dihydroxycyclopentyl)-N-((5-phenyl-1,3,4-thiadiazol-2-yl)methyl)-1H-1,2,3-triazole-4-carboxamide], the EC50 came to 499 nM.

In the case of `O=C(NCc1nnc(-c2ccccc2)s1)c1cn(CC(O)CO)nn1` (centres unmarked) [Example 191, 1-(2,3-dihydroxypropyl)-N-((5-phenyl-1,3,4-thiadiazol-2-yl)methyl)-1H-1,2,3-triazole-4-carboxamide], the EC50 was 12 nM.

As for `O=C1COC(Cn2cc(C(=O)NCc3nnc(-c4ccccc4)s3)nn2)CN1` (centres unmarked) [Example 192, 1-((5-oxomorpholin-2-yl)methyl)-N-((5-phenyl-1,3,4-thiadiazol-2-yl)methyl)-1H-1,2,3-triazole-4-carboxamide], the EC50 worked out at 264 nM.

For `CN(C)C(=O)CCn1cc(C(=O)NCc2nnc(-c3ccccc3)s2)nn1` [Example 193, 1-(3-(dimethylamino)-3-oxopropyl)-N-((5-phenyl-1,3,4-thiadiazol-2-yl)methyl)-1H-1,2,3-triazole-4-carboxamide], the EC50 came out at 958 nM.

With `O=C(NCc1nnc(-c2ccccc2)s1)c1cn(CCCO)nn1` [Example 194, 1-(3-hydroxypropyl)-N-((5-phenyl-1,3,4-thiadiazol-2-yl)methyl)-1H-1,2,3-triazole-4-carboxamide], the EC50 stood at 7 nM.

Take `CCC(CO)(CO)n1cc(C(=O)NCc2nnc(-c3ccccc3)s2)nn1` [Example 195, 1-(1-hydroxy-2-(hydroxymethyl)butan-2-yl)-N-((5-phenyl-1,3,4-thiadiazol-2-yl)methyl)-1H-1,2,3-triazole-4-carboxamide]: the EC50 came out at 532 nM.

On to `O=C(NCc1nnc(-c2ccccc2)s1)c1cn(C2CCC(O)C2)nn1` (centres unmarked) [Example 196, 1-(3-hydroxycyclopentyl)-N-((5-phenyl-1,3,4-thiadiazol-2-yl)methyl)-1H-1,2,3-triazole-4-carboxamide], for which the EC50 came to 11 nM.

For the compound `N#CC1(n2cc(C(=O)NCc3nnc(-c4ccccc4)s3)nn2)CCOC1` (centres unmarked) [Example 197, 1-(3-cyanotetrahydrofuran-3-yl)-N-((5-phenyl-1,3,4-thiadiazol-2-yl)methyl)-1H-1,2,3-triazole-4-carboxamide], the EC50 was determined as 28 nM.

`O=C(NCc1nnc(-c2ccccc2)s1)c1cn([C@@H]2COC[C@@H]2F)nn1` [Example 198, 1-((3R,4R)-4-fluorotetrahydrofuran-3-yl)-N-((5-phenyl-1,3,4-thiadiazol-2-yl)methyl)-1H-1,2,3-triazole-4-carboxamide]: the EC50 stood at 17 nM.

As to `O=C(NCc1nnc(-c2ccccc2)s1)c1cn([C@H]2COC[C@@H]2F)nn1` [Example 199, 1-((3S,4R)-4-fluorotetrahydrofuran-3-yl)-N-((5-phenyl-1,3,4-thiadiazol-2-yl)methyl)-1H-1,2,3-triazole-4-carboxamide], the EC50 is 140 nM.

Consider `O=C(NCc1nnc(-c2ccccc2)s1)c1cn(C2C3COCC32)nn1` (centres unmarked) [Example 200, 1-(3-oxabicyclo[3.1.0]hexan-6-yl)-N-((5-phenyl-1,3,4-thiadiazol-2-yl)methyl)-1H-1,2,3-triazole-4-carboxamide], for which the EC50 amounted to 537 nM.

In the case of `CC(C)(O)Cn1cc(C(=O)NCc2nnc(-c3ccccc3)s2)nn1` [Example 201, 1-(2-hydroxy-2-methylpropyl)-N-((5-phenyl-1,3,4-thiadiazol-2-yl)methyl)-1H-1,2,3-triazole-4-carboxamide], the EC50 came to 226 nM.

Regarding `CC(n1cc(C(=O)NCc2nnc(-c3ccccc3)s2)nn1)C(F)(F)F` (centres unmarked) [Example 203, N-((5-phenyl-1,3,4-thiadiazol-2-yl)methyl)-1-(1,1,1-trifluoropropan-2-yl)-1H-1,2,3-triazole-4-carboxamide], the EC50 is 31 nM.

On to `CC([C@H]1CCCO1)n1cc(C(=O)NCc2nnc(-c3ccccc3)s2)nn1` (stereo partly drawn) [Example 204, N-((5-phenyl-1,3,4-thiadiazol-2-yl)methyl)-1-(1-((R)-tetrahydrofuran-2-yl)ethyl)-1H-1,2,3-triazole-4-carboxamide], for which the concentration giving a half-maximal response (EC50) was determined as 74 nM.

Turning to `C[C@H]1OCC[C@H]1Cn1cc(C(=O)NCc2nnc(-c3ccccc3)s2)nn1` [Example 205, 1-(((2R,3S)-2-methyltetrahydrofuran-3-yl)methyl)-N-((5-phenyl-1,3,4-thiadiazol-2-yl)methyl)-1H-1,2,3-triazole-4-carboxamide], the EC50 amounted to 33 nM.

With `O=C(NCc1nnc(-c2ccccc2)s1)c1cn(C2CCCC(O)C2)nn1` (centres unmarked) [Example 206, 1-(3-hydroxycyclohexyl)-N-((5-phenyl-1,3,4-thiadiazol-2-yl)methyl)-1H-1,2,3-triazole-4-carboxamide], the EC50 came to 226 nM.

With `O=C(NCc1nnc(-c2ccccc2)s1)c1cn(CCC2CCCO2)nn1` (centres unmarked) [Example 207, N-((5-phenyl-1,3,4-thiadiazol-2-yl)methyl)-1-(2-(tetrahydrofuran-2-yl)ethyl)-1H-1,2,3-triazole-4-carboxamide], the EC50 turned out to be 327 nM.

On to `CC1(n2cc(C(=O)NCc3nnc(-c4ccccc4)s3)nn2)CC(F)(F)C1` [Example 208, 1-(3,3-difluoro-1-methylcyclobutyl)-N-((5-phenyl-1,3,4-thiadiazol-2-yl)methyl)-1H-1,2,3-triazole-4-carboxamide], for which the EC50 was 711 nM.

On to `O=C(NCc1nnc(-c2ccccc2)s1)c1cn([C@H]2CCC[C@@H]2O)nn1` [Example 209, 1-((1S,2S)-2-hydroxycyclopentyl)-N-((5-phenyl-1,3,4-thiadiazol-2-yl)methyl)-1H-1,2,3-triazole-4-carboxamide], for which the EC50 worked out at 146 nM.

With `O=C(NCc1nnc(-c2ccccc2)s1)c1cn([C@@H]2CCC[C@H]2O)nn1` [Example 210, 1-((1R,2R)-2-hydroxycyclopentyl)-N-((5-phenyl-1,3,4-thiadiazol-2-yl)methyl)-1H-1,2,3-triazole-4-carboxamide], the EC50 was 109 nM.

With `CC(F)(F)Cn1cc(C(=O)NCc2nnc(-c3ccccc3)s2)nn1` [Example 211, 1-(2,2-difluoropropyl)-N-((5-phenyl-1,3,4-thiadiazol-2-yl)methyl)-1H-1,2,3-triazole-4-carboxamide], the EC50 amounted to 14 nM.

On to `Cc1nc(C)c(-n2cc(C(=O)NCc3nnc(-c4ccccc4)s3)nn2)s1` [Example 212, 1-(2,4-dimethylthiazol-5-yl)-N-((5-phenyl-1,3,4-thiadiazol-2-yl)methyl)-1H-1,2,3-triazole-4-carboxamide], for which the EC50 was determined as 882 nM.

In the case of `O=C(NCc1nnc(-c2ccccc2)s1)c1cn(CC(F)F)nn1` [Example 213], the EC50 is 3 nM.

For `O=C(NCc1nnc(-c2ccccc2)s1)c1cc(C(F)(F)F)no1` [Example 214, N-[(5-phenyl-1,3,4-thiadiazol-2-yl)methyl]-3-(trifluoromethyl)-1,2-oxazole-5-carboxamide], the EC50 was determined as 251 nM.

For `O=C(NCc1nnc(-c2ccccc2)s1)c1noc2ccccc12` [Example 215, N-[(5-phenyl-1,3,4-thiadiazol-2-yl)methyl]-1,2-benzoxazole-3-carboxamide], the EC50 stood at 127 nM.

Regarding `Cc1ccc(-n2cc(C(=O)NCc3ccc(-n4nccn4)cn3)nn2)c(C)n1` [Example 216, 1-(2,6-dimethylpyridin-3-yl)-N-{[5-(2H-1,2,3-triazol-2-yl)pyridin-2-yl]methyl}-1H-1,2,3-triazole-4-carboxamide], the EC50 was 326 nM.

As to `Cn1cc(C(=O)NCc2cc(-c3ccc(Cl)cc3)no2)nn1` [Example 217, N-{[3-(4-chlorophenyl)-1,2-oxazol-5-yl]methyl}-1-methyl-1H-1,2,3-triazole-4-carboxamide], the EC50 was 648 nM.

In the case of `Cn1cc(C(=O)NCc2cc(-c3ccccc3)no2)nn1` [Example 218, 1-methyl-N-[(3-phenyl-1,2-oxazol-5-yl)methyl]-1H-1,2,3-triazole-4-carboxamide], the EC50 was found to be 184 nM.

For the compound `Cn1cc(C(=O)NCc2nnc(-c3ccc(F)cc3)s2)nn1` [Example 219, N-{[5-(4-fluorophenyl)-1,3,4-thiadiazol-2-yl]methyl}-1-methyl-1H-1,2,3-triazole-4-carboxamide], the EC50 worked out at 154 nM.
